Measurements reported in US20170342451A1, “BIOSYNTHESIS OF PACLITAXEL INTERMEDIATE” (Board of Trustees of Michigan State University, priority 2012, published 2017).

Target: T1, TycA (Brevibacillus parabrevis, UniProt P09095)
T1 construct: this wild-type tycA cDNA encoding the A-, T-, and E-domains was subcloned into a pSU18 vector; made in house; host or cells: Escherichia coli BL21(DE3)
T1 sequence (P09095 with tags, fused parts or gaps): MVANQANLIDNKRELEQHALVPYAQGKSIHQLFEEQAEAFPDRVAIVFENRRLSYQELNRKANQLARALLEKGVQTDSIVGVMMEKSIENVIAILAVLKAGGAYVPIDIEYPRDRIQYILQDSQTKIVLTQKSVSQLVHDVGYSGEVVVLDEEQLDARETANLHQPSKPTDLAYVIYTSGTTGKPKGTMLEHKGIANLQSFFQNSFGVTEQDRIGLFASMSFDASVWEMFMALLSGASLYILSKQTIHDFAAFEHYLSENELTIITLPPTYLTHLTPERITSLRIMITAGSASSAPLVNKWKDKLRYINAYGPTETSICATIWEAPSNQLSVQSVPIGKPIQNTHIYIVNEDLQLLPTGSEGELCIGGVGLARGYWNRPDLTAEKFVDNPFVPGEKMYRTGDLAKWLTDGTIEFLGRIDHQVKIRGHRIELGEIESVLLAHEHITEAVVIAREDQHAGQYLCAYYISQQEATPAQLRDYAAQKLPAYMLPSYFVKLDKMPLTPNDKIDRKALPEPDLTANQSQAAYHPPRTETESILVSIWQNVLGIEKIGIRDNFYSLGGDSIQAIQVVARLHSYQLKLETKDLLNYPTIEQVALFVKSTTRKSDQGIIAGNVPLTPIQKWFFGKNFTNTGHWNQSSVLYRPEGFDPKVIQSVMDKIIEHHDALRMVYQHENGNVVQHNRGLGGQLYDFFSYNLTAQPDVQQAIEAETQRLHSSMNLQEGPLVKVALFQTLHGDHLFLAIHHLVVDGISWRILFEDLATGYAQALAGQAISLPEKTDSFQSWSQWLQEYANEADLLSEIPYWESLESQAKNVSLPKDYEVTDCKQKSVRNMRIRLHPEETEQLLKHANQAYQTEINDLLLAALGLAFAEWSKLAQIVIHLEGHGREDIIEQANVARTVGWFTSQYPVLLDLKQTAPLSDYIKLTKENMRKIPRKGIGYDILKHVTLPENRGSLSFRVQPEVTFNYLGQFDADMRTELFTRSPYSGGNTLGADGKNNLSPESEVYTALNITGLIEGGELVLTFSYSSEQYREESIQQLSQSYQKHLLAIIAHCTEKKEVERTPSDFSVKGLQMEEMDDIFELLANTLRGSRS
Test: N-acetylcysteamine ligase reaction kinetics, TycA
Format: biochemical, Brevibacillus brevis
Settings: NAC with (S)-α-Phe as cosubstrate; for kcat^NAC: TycA with NAC at apparent saturation
Protocol: Substrates (S)-α-phenylalanine, (R)-β-phenylalanine, and (2R,3S)-phenylisoserine (each at 1 mM) were separately incubated with TycA or TycA-S563A (20 μg) in the presence of N-acetylcysteamine (NAC; 1 mM), ATP (1 mM), and Mg^2+ (3 mM) to establish steady-state conditions with respect to protein concentration and time at 31° C. Under steady-state conditions, either (S)-phenylalanine, (R)-β-phenylalanine, or (2R,3S)-phenylisoserine at 5, 10, 20, 40, 80, 160, 250, 500, 1000 and 2000 μM was separately incubated with TycA or TycA-S563A (20 μg), ATP (1 mM), Mg^2+ (3 mM), and N-acetylcysteamine (1 mM, ‘NAC’) in duplicate, single stopped-time ([…]) 100 μL assays. The reactions were quenched by acidification to a pH of about 2 (10% formic acid in distilled water). […] The samples were analyzed on a Quattro-Premier Electro-Spray Mass Spectrometer coupled with Acquity® UPLC system fitted with a C18 Ascentis Express column (2.5×50 mm, 2.7 μm) at 30° C. […] In brief, the effluent from the chromatography column was directed to the Quattro Premier ESI mass spectrometer, in MRM scan mode, to quantify the biosynthetic acyl SNAC products. […] A standard curve was used to convert the peak area under the curve of the monitored fragment ion to concentration for each biosynthetic phenylpropionyl SNAC.
Authentic (5)-α-phenylalanyl, (R/S)-β-phenylalanyl- and (2R,3S)-phenylisoserinyl-SNAC were used to construct the standard curves by correlating the peak area under the curve of the monitored ion to concentration of the standard (at 0.16, 0.32, 0.64, 1.3, 2.5, 5, 10, 20, 40, 80, 160 and 320 μM) using linear regression analysis.
The KM values of TycA and TycA-S563A for N-acetylcysteamine (NAC) was assessed by incubating each enzyme separately with (S)-α-phenylalanine (1 mM), MgCl2 (3 mM), ATP (1 mM), and N-acetylcysteamine at 5, 10, 20, 40, 80, 160, 250, 500, 1000 and 2000 μM at 31° C. for 20 min. […]

Row | Compound | kcat^NAC [min⁻¹] | Km (TycA with NAC) [µM]
1 | N[C@H](CC(=O)O)c1ccccc1 [(R)-β-Phe, (R)-β-phenylalanine] | 0.36 ± 0.06 | 
2 | N[C@@H](c1ccccc1)[C@@H](O)C(=O)O [(2R,3S)-PheIso, (2R,3S)-phenylisoserine] | 0.19 ± 0.01 | 132 ± 56
